# According to US20220331467A1, “HALAL DISINFECTANT LIQUID” (priority 2019, published 2022):
# Key:
# eye = conditions: OECD TG 405; cited from earlier work
# guinea pig skin = conditions: female, Slc:Hartley, in vivo
# Method: To find information related to the skin sensitization of a chlorous acid aqueous solution formulation, a Maximization Test was conducted using 20 female Slc:Hartley guinea pigs (SPF). […] In the test substance treatment group, 0.2 w/v % test substance solution (medium: distilled water) was intradermally injected in the first sensitization treatment using 10 animals, and a closed patch of 100% test substance solution (undiluted solution) was applied for 48 hours in the second sensitization treatment. A closed patch of 20 w/v % test substance solution was applied for 24 hours for elicitation treatment.
# The prepared administered solutions (1) to (3) (section 14.9.1) of each test group were intradermally injected at 0.1 mL each to correspond to administration sites (1) to (3) in image 1.
# The chest and back (image 1, site (4)) of an animal were shaved using an electric clipper and shaver on day 7. Open patch of 10% sodium dodecyl sulfate mixture (section 14.9.2) was applied thinly and homogeneously at the same site to a test substance treatment group and negative control group. […]
# The body weight was measured before starting sensitization treatment (day 0) and the day of completion of observation of elicitation treatment sites (day 25). […]
# The skin sensitization rate is calculated as [(number of sensitization positive animals/number of animals used)×100].
# rabbit skin = experiment: Skin irritability test using rabbits (OECD 404); type: in vivo; conditions: 0.5 mL patch, 4 hours exposure
# Method: To study the skin irritability and corrosiveness of a chlorous acid aqueous solution formulation, a skin irritability test was conducted using three female Kbl:NZW rabbits. The irritability reaction was compared by setting a three rabbit sodium hypochlorite formulation treatment group as a comparative control group. 0.5 mL of test substance was applied homogenously to a lint patch and exposed 4 hours to the skin on the back of the rabbits. […] In addition, the body weight before administration and at the end of observation was measured.
# For administration, 0.5 mL of test substance was spread homogeneously on the lint surface of a 2.45×2.45 cm patch (lint cloth, Hasegawa Menkou) by using a MICROMAN (model M1000, Gilson), and then applied to the back skin of animals using a paper adhesive tape (KENZ). Furthermore, the entire treatment site was covered with a large lint cloth (Hasegawa Menkou), which was secured with an adhesive bandage (New-HALE, Hasegawa Menkou). Exposure time was 4 hours. The patch was removed after completion of exposure. […]
# Erythema, eschar formation, and edema at sites of administration were observed 1, 24, 48, and 72 hours after patch removal, and scored in accordance with determination criteria for skin reactions (Draize, 1959). […]
# The body weight was measured on the administration date (before administration) and date of completion of observation for all tested animals. […]
SMILES,Severe injury to eye or eye irritability (GHS category) (eye),"Number of animals showing the sign: General condition, No abnormality observed (guinea pig skin)",Number of positive animal (guinea pig skin),GHS hazard category of dermal irritation/corrosion (rabbit skin)
"CCO [Ethanol 95 v/v %, Ethanol]",Category 2B,–,–,–
"CCCCCCC(C=O)=Cc1ccccc1 [HCA, α-Hexylcinnamaldehyde]",–,0,5,–
"OCl [Sodium hypochlorite, sodium hypochlorite]",Category 1,–,–,Category 1
